Consider 1 molecule from patent publication US11597724B2, “Herbicidally active 3-phenylisoxazoline-5-carboxamides of tetrahydro and dihydrofuran carboxylic acids and esters” (Bayer Aktiengesellschaft, priority 2017, dated 2023).

Assay type in all cases: in vivo
In one assay the test system is Abutilon theophrasti. As to the kind of experiment: Pre-emergence herbicidal activity against ABUTH. The conditions noted are these: dosage 80 g/ha. The text has this: 1. Pre-Emergence Herbicidal Action and Crop Plant Compatibility Seeds of monocotyledonous and dicotyledonous weed plants and crop plants are placed in plastic or wood fiber pots and covered with soil. The compounds of the invention, formulated in the form of wettable powders (WP) or as emulsion concentrates (EC), are then applied onto the surface of the covering soil as aqueous suspension or emulsion with addition of 0.5% additive at a water application rate of 600 l/ha (converted). After the treatment, the pots are placed in a greenhouse and kept under good growth conditions for the trial plants. After about 3 weeks, the effect of the preparations is scored visually in comparison with untreated controls as percentages. For example, 100% activity=the plants have died, 0% activity=like control plants. ABUTH: Abutilon theophrasti ALOMY: Alopecurus myosuroides

For another assay, the system named is Alopecurus myosuroides. Put plainly: Post-emergence herbicidal activity against ALOMY. The conditions noted are these: Alopecurus myosuroides, 504 h, dosage 320 g/ha, rated about 3 weeks after treatment. In outline: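 Greenhouse-grown plants treated at one-leaf stage, 2 to 3 weeks after sowing, with WP or EC formulations sprayed as aqueous suspension/emulsion plus 0.5% additive at 600 l/ha. Activity rated visually about 3 weeks later versus untreated controls (100% = plants dead, 0% = like control).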

The test system of the next assay is Echinochloa crus-galli. Put plainly: Post-emergence herbicidal activity against ECHCG. The conditions noted are these: Echinochloa crus-galli, 504 h, dosage 320 g/ha, rated about 3 weeks after treatment. On the procedure:
(§1) ECHCG: Echinochloa crus-galli HORMU: Hordeum murinum 2. Post-Emergence Herbicidal Action and Crop Plant Compatibility Seeds of monocotyledonous and dicotyledonous weeds and crop plants are placed in sandy loam in plastic or wood-fiber pots, covered with soil and cultivated in a greenhouse under controlled growth conditions. 2 to 3 weeks after sowing, the test plants are treated at the one-leaf stage. The compounds of the invention, formulated in the form of wettable powders (WP) or as emulsion concentrates (EC), are then sprayed onto the green parts of the plants as aqueous suspension or emulsion with addition of 0.5% additive at a water application rate of 600 l/ha (converted). After the test plants had been kept in the greenhouse under optimum growth conditions for about 3 weeks, the activity of the preparations is rated visually in comparison to untreated controls. For example, 100% activity=the plants have died, 0% activity=like control plants.

Another assay concerns Setaria viridis. Put plainly: Post-emergence herbicidal activity against SETVI. As to conditions: Setaria viridis, 504 h, dosage 320 g/ha, rated about 3 weeks after treatment. The procedure: as §1, with “POLCO: Polygonum convolvulus SETVI: Setaria viridis” for “ECHCG: Echinochloa crus-galli HORMU: Hordeum murinum”
Another assay deals with Pharbitis purpurea. Put plainly: Post-emergence herbicidal activity against PHBPU. The conditions noted are these: Ipomoea purpurea, 504 h, dosage 320 g/ha, rated about 3 weeks after treatment. The method, boiled down:
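Greenhouse-grown plants sprayed post-emergence at the one-leaf stage, 2 to 3 weeks after sowing, with WP or EC formulations plus 0.5% additive at 600 l/ha water. Activity rated visually after about 3 weeks versus untreated controls (100% = plants dead, 0% = like control).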

Another assay has as its system Polygonum convolvulus. As to the kind of experiment: Post-emergence herbicidal activity against POLCO. The conditions noted are these: Fallopia convolvulus, 504 h, dosage 320 g/ha, rated about 3 weeks after treatment. In outline:
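Greenhouse weeds in sandy loam were sprayed at the one-leaf stage, 2–3 weeks after sowing, with WP or EC formulations plus 0.5% additive at 600 l/ha water. About 3 weeks later, damage was rated visually against untreated controls, where 100% means plants dead and 0% means like control.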

Another assay relates to Viola tricolor. Put plainly: Post-emergence herbicidal activity against VIOTR. The conditions noted are these: Viola tricolor, 504 h, dosage 320 g/ha, rated about 3 weeks after treatment. The procedure: as §1, with “VIOTR: Viola tricolor” for “ECHCG: Echinochloa crus-galli HORMU: Hordeum murinum”
For the next assay, the system named is Veronica persica. As to the kind of experiment: Post-emergence herbicidal activity against VERPE. As to conditions: Veronica persica, 504 h, dosage 320 g/ha. In outline:
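Greenhouse plants treated at one-leaf stage, 2–3 weeks after sowing, by spraying WP or EC formulations with 0.5% additive at 600 l/ha water. Visual rating about 3 weeks later versus untreated controls (100% = plants dead, 0% = like controls).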

Assay [1] is described as follows: Post-emergence treatment, summary over harmful plants. The conditions noted are these: 504 h, application rate of 0.32 kg of active substance or less per hectare, read-out: herbicidal action, post-emergence treatment (very good herbicidal activity). On the procedure: 2. Post-Emergence Herbicidal Action and Crop Plant Compatibility
as §1, with “Seeds” for “ECHCG: Echinochloa crus-galli HORMU: Hordeum murinum 2. Post-Emergence Herbicidal Action and Crop Plant Compatibility Seeds”
As shown by the results, compounds according to the invention such as, for example, the compounds No. I-35 and other compounds from the tables (for example I-28, I-38, I-01, I-19, I-36, I-29, I-32, I-11, I-12, I-37, I-06, I-09, I-33, I-34, I-13, I-04, I-26, I-21, I-30, I-05, I-03, I-20, I-27, I-14, I-10, I-23, I-07, I-25, I-02, I-08, I-24, I-41, I-42, I-43, I-44, I-46, I-49, I-54, I-55, I-56) have, when used for post-emergence treatment, very good herbicidal activity (80% to 100% herbicidal action) against harmful plants such as Abutilon theophrasti, Alopecurus myosuroides, Amaranthus retroflexus, Avena fatua, Echinochloa crus-galli, Hordeum murinum, Lolium rigidum, Pharbitis purpurea, Polygonum convolvulus, Setaria viridis, Stellaria media, Veronica persica and Viola tricolor at an application rate of 0.32 kg of active substance or less per hectare.

Molecules are shown by their SMILES.

`COC(=O)[C@H]1C[C@@H](NC(=O)C2(OC)CC(c3cc(Cl)cc(Cl)c3)=NO2)CO1` (relative stereo) [I-02, methyl cis-4-[[3-(3,5-dichlorophenyl)-5-methoxy-4H-isoxazole-5-carbonyl]amino]tetrahydrofuran-2-carboxylate]: in the assay with Abutilon theophrasti, the “Pre-emergence herbicidal activity against ABUTH in %” value amounted to 100%. Further, the pest or weed control at 320 g/ha in the assay with Alopecurus myosuroides came to 80%; in the assay on Echinochloa crus-galli, 90%; with Setaria viridis, 80%; with Pharbitis purpurea it was 90%; in the assay on Polygonum convolvulus, 90%; in the assay with Viola tricolor, 80%. The values for the pest or weed control at 320 g/ha (with Veronica persica; in assay [1]) were 80% and 80 to 100%, respectively.
